# Where “and” joins values, the source holds several entries; their conditions need not be identical. Equal entries are not always repeated. Strand notation (5' to 3'): a small letter for the sugar, then the base; units joined by * are phosphorothioate-linked, units joined directly phosphodiester-linked; [ ] holds rarer units or linkages, { } end groups; capitals alone tell only the bases. [ms] = mesyl phosphoramidate linkage; e = 2'-O-(2-methoxyethyl) (MOE); k = constrained ethyl (cEt); [5mC] = 5-methylcytosine; d = 2'-deoxy (DNA)
# Key:
# human APOE RNA [1] = experiment: Duration of action study in APOE C57BL/6NTac-Apoeem7250 knock-in mice (Example 16); assay type: in vivo; details: 300 μg ICV
# Experimental: (§1) Modified oligonucleotides described above were tested in the APOE C57BL/6NTac-Apoeem7250 knock-in mouse model described above.
# APOE C57BL/6NTac-Apoeem7250 knock-in mice were divided into groups of 2-4 mice each. Each mouse received a single intracerebroventricular (ICV) bolus of 300 μg of modified oligonucleotide. A group of 2-4 mice received a single ICV bolus with PBS as a negative control.
# Mice were sacrificed at various timepoints as indicated in the table below and RNA was extracted from cortical brain tissue and spinal cord for quantitative real-time RT-PCR analysis of RNA expression of APOE using primer probe set RTS3073 (described herein above). APOE RNA levels were normalized to mouse Ppia. Mouse Ppia was amplified using primer probe set m_cyclo24 (described herein above). Results are presented as percent human APOE RNA relative to the amount of human APOE RNA in PBS treated animals, (% control). Each experiment is identified in separate tables below.
# human APOE RNA [2] = experiment: Activity in APOE C57BL/6NTac-Apoeem7250 knock-in mice, single ICV bolus, 8 weeks (Example 11); assay type: in vivo; details: single ICV bolus 300 μg, 8 weeks post treatment, normalized to mouse Ppia
# Summary of the method: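 Cortical and spinal cord human APOE RNA quantified by RT-qPCR 8 weeks after a single 300 μg ICV dose in knock-in mice, Ppia-normalized. Values are percent of levels in PBS-treated animals.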
# human APOE RNA [3] = experiment: Dose-dependent inhibition of human APOE RNA in differentiated SH-SY5Y cells, free uptake, 5 days (Example 5); assay type: cell-based; details: 5 days (Table 14)
# Experimental: Modified oligonucleotides selected from the examples above were tested at various doses in differentiated SH-SY5Y cells. The modified oligonucleotides were tested in a series of experiments that had the same culture conditions.
# Differentiated SH-SY5Y cells plated at a density of 10,000 cells per well were treated by free uptake with various concentrations of modified oligonucleotide as specified in the tables below. […] APOE RNA levels were measured using the human primer probe set RTS3073 (described herein above). APOE RNA levels were normalized to human PPIA. Human PPIA was amplified using human primer probe set mk_cycloA_2nd (described herein above). Results are presented as percent APOE RNA, relative to the amount of APOE RNA in untreated control cells (% UTC). The half maximal inhibitory concentration (IC50) of each modified oligonucleotide was calculated in GraphPad Prism 10 (GraphPad Software, San Diego, CA) and is also presented in the tables below.
# human APOE RNA [4] = experiment: Dose-dependent inhibition of human APOE RNA in HepG2 cells, electroporation, 50,000 cells per well, RT-PCR normalized to GAPDH (Example 4, Tables 8-10); assay type: cell-based
# Summary of the method: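 Readout is percent APOE RNA versus untreated controls, measured by RT-PCR (primer probe set RTS3073) and normalized to human GAPDH. Modified oligonucleotides were delivered by electroporation at varying doses into HepG2 cells plated at 50,000 per well.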
# human APOE RNA [5] = experiment: Activity in APOE C57BL/6NTac-Apoeem7250 knock-in mice, single ICV bolus, 4 weeks (Example 10); assay type: in vivo; details: single ICV bolus 300 μg, 4 weeks post treatment, normalized to mouse Ppia
# Summary of the method: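 Human APOE RNA, quantified by real-time RT-PCR with RTS3073 and normalized to mouse Ppia, was read in cortical brain and spinal cord 4 weeks post dosing. Dosing was a single ICV bolus of 300 μg per knock-in mouse; values are % of PBS-treated animals.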
# human APOE RNA [6] = experiment: Potency (dose response, ED50) in APOE C57BL/6NTac-Apoeem7250 knock-in mice, 4 weeks (Example 14); assay type: in vivo
# Experimental: as §1
# APOE C57BL/6NTac-Apoeem7250 knock-in mice were divided into groups of 3-4 mice each. A group of 3-4 mice received a single ICV bolus with PBS as a negative control.
# Four weeks post treatment, mice were sacrificed, and RNA was extracted from cortical brain tissue and spinal cord for quantitative real-time RT-PCR analysis of RNA expression of […] using human primer probe set RTS3073 (described herein above). APOE RNA levels were normalized to mouse Ppia. Mouse Ppia was amplified using primer probe set m_cyclo24 (described herein above). Results are presented as percent human APOE RNA relative to the amount of APOE RNA in PBS treated animals, (% control). N.C. indicates values that were not calculated. Each experiment is identified in separate tables below.
# The half maximal effective dose (ED50) of each modified oligonucleotide was calculated using GraphPad Prism 10 software (GraphPad Software, San Diego, CA).
# human APOE RNA [7] = experiment: Activity in APOE C57BL/6NTac-Apoeem7250 knock-in mice, single ICV bolus, 16 weeks (Example 12); assay type: in vivo; details: single ICV bolus 300 μg, 16 weeks post treatment, normalized to mouse Ppia
# Summary of the method: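 A single 300 μg intracerebroventricular dose was given, with PBS-treated mice as reference; cortical and spinal cord tissue was taken 16 weeks later. RT-qPCR quantified human APOE RNA, Ppia-normalized, expressed relative to PBS animals (% control).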
# human APOE RNA [8] = experiment: Activity in APOE C57BL/6NTac-Apoeem7250 knock-in mice, single ICV bolus, 20 weeks (Example 13); assay type: in vivo; details: single ICV bolus 300 μg, 20 weeks post treatment, normalized to mouse Ppia
# Summary of the method: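 Cortical and spinal cord RNA was assayed by real-time RT-PCR for human APOE, normalized to mouse Ppia and reported as percent of PBS controls. Tissue was taken twenty weeks after one 300 μg intracerebroventricular bolus in APOE knock-in mice, 4 per group.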
substance,measurement,setting,value
1746804 (k[5mC]*kT*kT*dG[ms]dG[ms]dT[ms]dG[ms]dA[ms]dA[ms]dT*d[5mC]*dT*dT*dT*dA[ms]dT*dT[ms]kA*kA*kA; antisense) [Compound 1746804],APOE RNA (% control) Cortex,human APOE RNA [1]; 112 days post-dose,37 % control
same,APOE RNA (% control) Cortex,human APOE RNA [1]; 140 days post-dose,60 % control
same,APOE RNA (% control) Spinal Cord,human APOE RNA [1]; 112 days post-dose,205 % control
same,APOE RNA (% control) Spinal Cord,human APOE RNA [1]; 140 days post-dose,207 % control
same,APOE RNA (% control) Cortex,human APOE RNA [2],40 % control
same,APOE RNA (% control) Spinal Cord,human APOE RNA [2],25 % control
same,APOE RNA (% UTC),human APOE RNA [3]; 5 nM,114 % UTC
same,APOE RNA (% UTC),human APOE RNA [3]; 13 nM,117 % UTC
same,APOE RNA (% UTC),human APOE RNA [3]; 33 nM,120 % UTC
same,APOE RNA (% UTC),human APOE RNA [3]; 82 nM,97 % UTC
same,APOE RNA (% UTC),human APOE RNA [3]; 205 nM,84 % UTC
same,APOE RNA (% UTC),human APOE RNA [3]; 512 nM,82 % UTC
same,APOE RNA (% UTC),"human APOE RNA [3]; 1,280 nM",61 % UTC
same,APOE RNA (% UTC),"human APOE RNA [3]; 3,200 nM",48 % UTC
same,APOE RNA (% UTC),"human APOE RNA [3]; 8,000 nM",32 % UTC
same,APOE RNA (% UTC),"human APOE RNA [3]; 20,000 nM",18 % UTC
same,IC50,human APOE RNA [3],2830 nM
same,APOE RNA (% UTC),"human APOE RNA [4]; 5 nM, HepG2, electroporation, 24-hour treatment",89 % UTC
same,APOE RNA (% UTC),"human APOE RNA [4]; 13 nM, HepG2, electroporation, 24-hour treatment",88 % UTC
same,APOE RNA (% UTC),"human APOE RNA [4]; 33 nM, HepG2, electroporation, 24-hour treatment",80 % UTC
same,APOE RNA (% UTC),"human APOE RNA [4]; 82 nM, HepG2, electroporation, 24-hour treatment",81 % UTC
same,APOE RNA (% UTC),"human APOE RNA [4]; 205 nM, HepG2, electroporation, 24-hour treatment",66 % UTC
same,APOE RNA (% UTC),"human APOE RNA [4]; 512 nM, HepG2, electroporation, 24-hour treatment",57 % UTC
same,APOE RNA (% UTC),"human APOE RNA [4]; 1,280 nM, HepG2, electroporation, 24-hour treatment",45 % UTC
same,APOE RNA (% UTC),"human APOE RNA [4]; 3,200 nM, HepG2, electroporation, 24-hour treatment",40 % UTC
same,APOE RNA (% UTC),"human APOE RNA [4]; 8,000 nM, HepG2, electroporation, 24-hour treatment",4 % UTC
same,APOE RNA (% UTC),"human APOE RNA [4]; 20,000 nM, HepG2, electroporation, 24-hour treatment",2 % UTC
same,IC50,"human APOE RNA [4]; HepG2, electroporation, 24-hour treatment",680 nM
same,APOE RNA (% control) Cortex,human APOE RNA [5],51 % control and 46 % control
same,APOE RNA (% control) Spinal Cord,human APOE RNA [5],52 % control and 40 % control
1778154: modified oligonucleotide complementary to human APOE RNA (e[5mC]*eT*eTeGeGeT*dG[ms]dA[ms]dA*dT*d[5mC]*dT*dT*dT*dA*dT*kTkAeA*eA; antisense) [compound 1778154],APOE RNA (% control) Cortex,"human APOE RNA [6]; cortex, ICV dose 10 μg",89 % control
same,APOE RNA (% control) Cortex,"human APOE RNA [6]; cortex, ICV dose 30 μg",89 % control
same,APOE RNA (% control) Cortex,"human APOE RNA [6]; cortex, ICV dose 100 μg",70 % control
same,APOE RNA (% control) Cortex,"human APOE RNA [6]; cortex, ICV dose 300 μg",56 % control
same,APOE RNA (% control) Cortex,"human APOE RNA [6]; cortex, ICV dose 700 μg",27 % control
same,ED 50 (μg) Cortex,"human APOE RNA [6]; cortex, single ICV bolus, GraphPad Prism 10",279.4 µg
same,APOE RNA (% control) Spinal Cord,"human APOE RNA [6]; spinal cord, ICV dose 10 μg",105 % control
same,APOE RNA (% control) Spinal Cord,"human APOE RNA [6]; spinal cord, ICV dose 30 μg",137 % control
same,APOE RNA (% control) Spinal Cord,"human APOE RNA [6]; spinal cord, ICV dose 100 μg",38 % control
same,APOE RNA (% control) Spinal Cord,"human APOE RNA [6]; spinal cord, ICV dose 300 μg",43 % control
same,APOE RNA (% control) Spinal Cord,"human APOE RNA [6]; spinal cord, ICV dose 700 μg",47 % control
same,ED 50 (μg) Spinal Cord,"human APOE RNA [6]; spinal cord, single ICV bolus, GraphPad Prism 10",243.1 µg
same,APOE RNA (% control) Cortex,human APOE RNA [2],29 % control
same,APOE RNA (% control) Spinal Cord,human APOE RNA [2],32 % control
same,APOE RNA (% control) Cortex,human APOE RNA [7]; cortex,50 % control
same,APOE RNA (% control) Spinal Cord,human APOE RNA [7]; spinal cord,29 % control
same,APOE RNA (% UTC) 5 nM,"human APOE RNA [4]; HepG2 cells, electroporation, 24-hour treatment, 5 nM, Table 8",101 % UTC
same,APOE RNA (% UTC) 13 nM,"human APOE RNA [4]; HepG2 cells, electroporation, 24-hour treatment, 13 nM, Table 8",97 % UTC
same,APOE RNA (% UTC) 33 nM,"human APOE RNA [4]; HepG2 cells, electroporation, 24-hour treatment, 33 nM, Table 8",91 % UTC
same,APOE RNA (% UTC) 82 nM,"human APOE RNA [4]; HepG2 cells, electroporation, 24-hour treatment, 82 nM, Table 8",98 % UTC
same,APOE RNA (% UTC) 205 nM,"human APOE RNA [4]; HepG2 cells, electroporation, 24-hour treatment, 205 nM, Table 8",76 % UTC
same,APOE RNA (% UTC) 512 nM,"human APOE RNA [4]; HepG2 cells, electroporation, 24-hour treatment, 512 nM, Table 8",58 % UTC
same,"APOE RNA (% UTC) 1,280 nM","human APOE RNA [4]; HepG2 cells, electroporation, 24-hour treatment, 1,280 nM, Table 8",47 % UTC
same,"APOE RNA (% UTC) 3,200 nM","human APOE RNA [4]; HepG2 cells, electroporation, 24-hour treatment, 3,200 nM, Table 8",22 % UTC
same,"APOE RNA (% UTC) 8,000 nM","human APOE RNA [4]; HepG2 cells, electroporation, 24-hour treatment, 8,000 nM, Table 8",35 % UTC
same,"APOE RNA (% UTC) 20,000 nM","human APOE RNA [4]; HepG2 cells, electroporation, 24-hour treatment, 20,000 nM, Table 8",8 % UTC
same,IC50,"human APOE RNA [4]; reduction of human APOE RNA, HepG2 cells, electroporation, 24-hour treatment, Table 8",1080 nM
same,APOE RNA (% control) Cortex,human APOE RNA [8]; cortex,82 % control
same,APOE RNA (% control) Spinal Cord,human APOE RNA [8]; spinal cord,46 % control
same,APOE RNA (% control) Cortex,human APOE RNA [5],30 % control
same,APOE RNA (% control) Spinal Cord,human APOE RNA [5],44 % control
